Columns and labels:
BACE2 = target: T1, BACE2 (Homo sapiens, UniProt Q9Y5Z0); assay: BACE2 biochemical FRET based assay; details: recombinant BACE2, 450 minutes at room temperature, pH 5.0; for IC50: read-out: Biochemical FRET based assay pIC50 (converted)
T1 construct: recombinant BACE2 protein in a final concentration of 0.4 μg/ml
T1 sequence (Q9Y5Z0 63-518): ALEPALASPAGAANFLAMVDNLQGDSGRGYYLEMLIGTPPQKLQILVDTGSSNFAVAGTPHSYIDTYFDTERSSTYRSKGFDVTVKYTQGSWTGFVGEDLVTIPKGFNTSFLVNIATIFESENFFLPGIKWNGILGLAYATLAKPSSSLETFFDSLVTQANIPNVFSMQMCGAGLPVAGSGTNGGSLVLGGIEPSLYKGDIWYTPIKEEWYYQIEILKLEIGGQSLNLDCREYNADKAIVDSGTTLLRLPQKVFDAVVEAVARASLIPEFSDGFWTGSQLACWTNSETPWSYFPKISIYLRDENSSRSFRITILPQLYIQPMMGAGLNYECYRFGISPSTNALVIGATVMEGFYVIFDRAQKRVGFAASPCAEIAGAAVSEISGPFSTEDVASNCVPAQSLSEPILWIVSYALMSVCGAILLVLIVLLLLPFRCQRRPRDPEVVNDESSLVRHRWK
Source text: BACE2 Biochemical FRET Based Assay
(§1) This assay is a Fluorescence Resonance Energy Transfer Assay (FRET) based assay. The substrate for this assay contains the ‘Swedish’ Lys-Met/Asn-Leu mutation of the amyloid precursor protein (APP) beta-site APP-cleaving enzyme cleavage site. This substrate also contains two fluorophores: (7-methoxycoumarin-4-yl) acetic acid (Mca) is a fluorescent donor with excitation wavelength at 320 nm and emission at 405 nm and 2,4-Dinitrophenyl (Dnp) is a proprietary quencher acceptor. […] Upon cleavage by the beta-site APP-cleaving enzyme, the fluorophore Mca is separated from the quenching group Dnp, restoring the full fluorescence yield of the donor. The increase in fluorescence is linearly related to the rate of proteolysis.
Briefly in a 384-well format recombinant BACE2 protein in a final concentration of 0.4 μg/ml is incubated for 450 minutes at room temperature with 10 μM substrate in incubation buffer (50 mM Citrate buffer pH 5.0, 0.05% PEG, no DMSO) in the absence or presence of compound. Next the amount of proteolysis is directly measured by fluorescence measurement at T=0 and T=450 (excitation at 320 nm and emission at 405 nm). Results are expressed in RFU (Relative Fluorescence Units), as difference between T450 and T0.
(§2) A best-fit curve is fitted by a minimum sum of squares method to the plot of % Controlmin versus compound concentration. From this an IC50 value (inhibitory concentration causing 50% inhibition of activity) can be obtained.

[1] = system: Abeta 1-42 produced and secreted into the medium of human neuroblastoma SKNBE2 cells; assay: Cellular αLisa assay in SKNBE2 cells; assay type: cell-based; details: human neuroblastoma SKNBE2 cells expressing hAPP695, 18 hours incubation; for IC50: Homo sapiens, SKNBE2, 18 h, read-out: Cellular αLisa assay in SKNBE2 cells Abeta 42 pIC50 (converted)
Protocol: Cellular αLisa Assay in SKNBE2 Cells
In two αLisa assays the levels of Abeta 1-42 produced and secreted into the medium of human neuroblastoma SKNBE2 cells are quantified. The assay is based on the human neuroblastoma SKNBE2 expressing the wild type Amyloid Precursor Protein (hAPP695). The compounds are diluted and added to these cells, incubated for 18 hours and then measurements of Abeta 1-42 are taken. Abeta 1-42 are measured by sandwich αLisa. αLisa is a sandwich assay using biotinylated antibody AbN/25 attached to streptavidin coated beads and antibody cAb42/26 conjugated acceptor beads for the detection of Abeta 1-42 respectively. In the presence of Abeta 1-42, the beads come into close proximity. The excitation of the donor beads provokes the release of singlet oxygen molecules that trigger a cascade of energy transfer in the acceptor beads, resulting in light emission. Light emission is measured after 1 hour incubation (excitation at […] and emission at 615 nm).
as §2

BACE1 = target: T2, BACE1 (Homo sapiens, UniProt P56817); assay: BACE1 biochemical FRET based assay; details: Method 1: recombinant BACE1 1 μg/ml, 120 min at room temperature, pH 5.0; for IC50: read-out: Biochemical FRET based assay pIC50 (converted)
T2 construct: recombinant BACE1 protein in a final concentration of 1 μg/ml
Source text: BACE1 Biochemical Fret Based Assay
as §1, with “this assay is an APP derived 13 amino acids peptide that contains the” for “this assay contains the”, “cleavage by BACE1, the fluorophore” for “cleavage by the beta-site APP-cleaving enzyme, the fluorophore”
Briefly in a 384-well format recombinant BACE1 protein in a final concentration of 1 μg/ml is incubated for 120 minutes at room temperature with 10 μm substrate in incubation buffer (40 mM Citrate buffer pH 5.0, 0.04% PEG, 4% DMSO) in the absence or presence of compound. Next the amount of proteolysis is directly measured by fluorescence measurement at T=0 and T=120 (excitation at 320 nm and emission at 405 nm). Results are expressed in RFU (Relative Fluorescence Units), as difference between T120 and T0.
as §2

T2 sequence (P56817 46-501): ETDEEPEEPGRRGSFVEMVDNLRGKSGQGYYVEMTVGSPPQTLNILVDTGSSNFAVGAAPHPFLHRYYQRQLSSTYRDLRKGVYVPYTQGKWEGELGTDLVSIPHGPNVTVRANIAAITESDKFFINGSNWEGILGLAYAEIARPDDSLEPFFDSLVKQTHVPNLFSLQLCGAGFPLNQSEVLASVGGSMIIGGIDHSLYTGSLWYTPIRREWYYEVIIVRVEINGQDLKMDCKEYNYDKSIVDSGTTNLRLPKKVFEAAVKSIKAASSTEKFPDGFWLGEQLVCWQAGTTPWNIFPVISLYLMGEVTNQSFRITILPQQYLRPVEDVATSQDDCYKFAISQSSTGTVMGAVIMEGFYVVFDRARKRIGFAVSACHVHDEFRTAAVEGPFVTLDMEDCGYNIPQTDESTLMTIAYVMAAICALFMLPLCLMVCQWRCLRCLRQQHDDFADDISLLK

IC50 (BACE2) | Cellular αLisa assay in SKNBE2 cells Abeta 42 pIC50 [1] | IC50 (BACE1) | Biochemical FRET based assay pIC50 (BACE2) | Biochemical FRET based assay pIC50 (BACE1) | IC50 [1] | Structure (SMILES)
263 nM | 7.57 | 6.31 nM | – | – | – | CC1(C#N)CC2C(C(F)(F)F)OCC2(c2cc(NC(=O)c3cnc(-n4cncn4)cn3)ccc2F)N=C1N (single isomer, unassigned) [34a]
83.2 nM | 8.32 | 5.62 nM | – | – | – | CC1OCC2(c3cc(NC(=O)c4ccc(OC(F)F)cn4)ccc3F)N=C(N)C(C)(C#N)CC12 (single isomer, unassigned) [35a]
8910 nM | 5.78 | 708 nM | – | – | – | CC1OCC2(c3cc(NC(=O)c4ccc(C#N)cn4)cc(F)c3F)N=C(N)C(C)(C#N)CC12 (single isomer, unassigned) [33d]
85.1 nM | – | 6.76 nM | – | – | 10 nM | CC1OCC2(c3cc(NC(=O)c4ccc(OC(F)F)cn4)ccc3F)N=C(N)C(C)(C#N)CC12 (stereo not drawn) [compound 35]
> 10000 nM | 6.11 | 741 nM | – | – | – | CC1OCC2(c3cc(NC(=O)c4ccc(OC(F)F)cn4)ccc3F)N=C(N)C(C)(C#N)CC12 (single isomer, unassigned) [35b]
158 nM | 7.57 | 15.5 nM | – | – | – | CC1OCC2(c3cc(NC(=O)c4cnc(OCF)cn4)cc(F)c3F)N=C(N)C(C)(C#N)CC12 (single isomer, unassigned) [31c]
> 10000 nM | <5.05 | 8710 nM | – | – | – | CC1OCC2(c3cc(NC(=O)c4cnc(OCF)cn4)cc(F)c3F)N=C(N)C(C)(C#N)CC12 (single isomer, unassigned) [31b]
> 10000 nM | <5.05 | > 10000 nM | – | – | – | CC1OCC2(c3cc(NC(=O)c4cnc(OCF)cn4)cc(F)c3F)N=C(N)C(C)(C#N)CC12 (single isomer, unassigned) [31d]

Second part, the compound before the results:

Structure (SMILES) | IC50 (BACE2) | Cellular αLisa assay in SKNBE2 cells Abeta 42 pIC50 [1] | IC50 (BACE1) | Biochemical FRET based assay pIC50 (BACE2) | Biochemical FRET based assay pIC50 (BACE1) | IC50 [1]
C[C@]1(C#N)C[C@@H]2[C@@H](C(F)(F)F)OC[C@]2(c2cc(NC(=O)c3ccc(F)cn3)ccc2F)N=C1N [2f] | – | 7.47 | – | 7.35 | 7.83 | –
COc1cnc(C(=O)Nc2ccc(F)c([C@@]34CO[C@@H](C)[C@@H]3C[C@](C)(S(C)(=O)=O)C(N)=N4)c2)cn1 (single isomer, unassigned) [13c] | – | 6.21 | – | 5.41 | 6.05 | –
C[C@@]1(C#N)C[C@@H]2[C@@H](C(F)(F)F)OC[C@]2(c2cc(NC(=O)c3ncc(Cl)cn3)ccc2F)N=C1N [8c] | – | 8.17 | – | 8.46 | 8.75 | –
N#Cc1ccc(C(=O)Nc2ccc(F)c([C@]34CO[C@H](C(F)(F)F)[C@H]3CCC(N)=N4)c2)nc1 [11a] | – | 8.58 | – | 6.88 | 8.53 | –
COc1cnc(C(=O)Nc2ccc(F)c([C@@]34CO[C@@H](C)[C@@H]3C[C@@](C)(C#N)C(N)=N4)c2)cn1 [5c] | – | <5.05 | – | <5 | <5 | –
CC1(C#N)CC2C(C(F)F)OCC2(c2cc(NC(=O)c3cnc(OCF)cn3)ccc2F)N=C1N (single isomer, unassigned) [25a] | 141 nM | 7.74 | 8.91 nM | – | – | –
C[C@]1(C#N)C[C@H]2[C@H](C(F)(F)F)OC[C@@]2(c2cc(NC(=O)c3ccc(C#N)cn3)ccc2F)N=C1N [3d] | – | <5.05 | – | <5 | 5.02 | –
C[C@H]1OC[C@]2(c3cc(NC(=O)c4ccc(F)cn4)ccc3F)N=C(N)[C@](C)(C#N)C[C@H]12 (single isomer, unassigned) [10b] | – | 8.23 | – | 8.28 | 8.25 | –
CC(F)(F)[C@H]1OC[C@]2(c3cc(NC(=O)c4cnc(-n5cncn5)cn4)ccc3F)N=C(N)[C@](C)(C#N)C[C@H]12 [16a] | 363 nM | – | 4.9 nM | – | – | 16.6 nM
C[C@]1(C#N)C[C@H]2[C@H](C(F)(F)F)OC[C@@]2(c2cc(NC(=O)c3ncc(Cl)cn3)ccc2F)N=C1N [8d] | – | 5.1 | – | 5.08 | 5.37 | –
C[C@]1(C#N)C[C@H]2[C@H](C(F)(F)F)OC[C@@]2(c2cc(NC(=O)c3cnc(OCF)cn3)ccc2F)N=C1N [7c] | – | 5.32 | – | <5 | 5.97 | –
COc1cnc(C(=O)Nc2ccc(F)c([C@@]34CO[C@@H](C)[C@@H]3C[C@@](C)(S(C)(=O)=O)C(N)=N4)c2)cn1 (single isomer, unassigned) [13b] | – | 5.75 | – | <5 | 5.48 | –
C[C@@H]1OC[C@@]2(c3cc(NC(=O)c4ccc(C#N)cn4)ccc3F)N=C(N)[C@@](C)(C#N)C[C@@H]12 [4c] | – | 6.22 | – | 5.27 | 6.28 | –
C[C@H]1OC[C@]2(c3cc(NC(=O)c4ccc(C#N)cn4)ccc3F)N=C(N)[C@@](C)(C#N)C[C@H]12 [6b] | – | 8.12 | – | 6.68 | 7.89 | –
CC1(C#N)CC2C(C(F)F)OCC2(c2cc(NC(=O)c3cnc(OCF)cn3)ccc2F)N=C1N (single isomer, unassigned) [25b] | 891 nM | 7.13 | 52.5 nM | – | – | –
CC1OCC2(c3cc(NC(=O)c4cnc(-n5cncn5)cn4)ccc3F)N=C(N)C(C)(C#N)CC12 (single isomer, unassigned) [15b] | > 10000 nM | 5.62 | 1550 nM | – | – | –
C[C@@]1(C#N)C[C@H]2[C@H](C(F)(F)F)OC[C@@]2(c2cc(NC(=O)c3ccc(F)cn3)ccc2F)N=C1N [2e] | – | <5.05 | – | <5 | <5 | –

— patent publication US20200062773A1, “4,4a,5,7-TETRAHYDRO-3H-FURO[3,4-b]PYRIDINYL COMPOUNDS” (Janssen Pharmaceutlca NV, priority 2016, published 2020)
